Results reported in patent US11596639B2, “Substituted indole Mcl-1 inhibitors” (Vanderbilt University, priority 2016, dated 2023).
Where two headings read alike, the source gives them in different places.

Assays:
Mcl-1 = Mcl-1 (Homo sapiens (Human), UniProt Q07820); experiment: Fluorescence polarization anisotropy (FPA) competition assay, FITC-Bak or FITC-Bim BH3 peptide; format: binding; conditions: read-out: Ki for Inhibition of Mcl-1 by FPA assay
[1] = test system: H929 human cancer cell lines; experiment: Cellular viability / proliferation (Cell TiterGlo, 72 h); format: cell-based
How it was run: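 Plating is at 1,000 cells/well in 10% FBS medium; after 24 h, compound is added as a 2-fold series starting at 50 μM with under 1% DMSO.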

[2] = read-out: GI50 on cellular proliferation of H929 human cancer cell lines, H929 cells, 72 h, Cell TiterGlo, 10% FBS
[3] = Homo sapiens, NCI-H929, 72 h, read-out: GI50 on cellular proliferation of H929 human cancer cell lines, H929 cells, 72 h, Cell TiterGlo, 10% FBS

Sequence of Mcl-1 (Q07820 172-327): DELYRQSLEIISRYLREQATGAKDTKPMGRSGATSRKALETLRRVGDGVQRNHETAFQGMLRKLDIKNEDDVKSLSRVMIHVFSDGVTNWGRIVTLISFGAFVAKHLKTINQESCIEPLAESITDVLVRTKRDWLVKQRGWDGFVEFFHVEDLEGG

Structure (SMILES) | Ki (Mcl-1) [nM] | GI50 [1, 2] [nM] | GI50 [1, 3] [nM]
Cc1cc(OCCCc2c3n(c4c(-c5c(C)nn(C)c5C)c(Cl)ccc24)[C@H](C)CN(c2nn(C)c4cccc(C(=O)O)c24)C3=O)cc(C)c1Cl [Example 175, (R)-3-(7-Chloro-10-(3-(4-chloro-3,5-dimethylphenoxy)propyl)-4-methyl-1-oxo-6-(1,3,5-trimethyl-1H-pyrazol-4-yl)-3,4-dihydropyrazino[1,2-a]indol-2(1H)-yl)-1-methyl-1H-indazole-4-carboxylic acid] | < 1 | 340 | –
Cc1cc(OCCCc2c3n(c4c(-c5c(C)nn(C)c5C)c(Cl)ccc24)[C@H](C)CN(c2cccc4cc(C(=O)O)n(Cc5ccccn5)c24)C3=O)cc(C)c1Cl [Example 249, 7-[(4R)-7-chloro-10-[3-(4-chloro-3,5-dimethyl-phenoxy)propyl]-4-methyl-1-oxo-6-(1,3,5-trimethylpyrazol-4-yl)-3,4-dihydropyrazino[1,2-a]indol-2-yl]-1-(2-pyridylmethyl)indole-2-carboxylic acid] | < 1 | 490 | –
Cc1cc(OCCCc2c3n(c4c(-c5c(C)nn(C)c5C)c(Cl)ccc24)[C@H](C)CN(c2cc(Cl)cc4cc(C(=O)O)oc24)C3=O)cc(C)c1Cl [Example 232, (R)-5Chloro-7-(7-chloro-10-(3-(4-chloro-3,5-dimethylphenoxy)propyl)-4-methyl-1-oxo-6-(1,3,5-trimethyl-1H-pyrazol-4-yl)-3,4-dihydropyrazino[1,2-a]indol-2(1H)-yl)benzofuran-2-carboxylic acid] | < 1 | – | 4000
Cc1cc(OCCCc2c3n(c4c(-c5c(C)nn(C)c5C)c(Cl)ccc24)[C@H](C)CN(c2cccc4c2cc(-c2nnco2)n4C)C3=O)cc(C)c1Cl [Example 347, (R)-7-Chloro-10-(3-(4-chloro-3,5-dimethylphenoxy)propyl)-4-methyl-2-(1-methyl-2-(1,3,4-oxadiazol-2-yl)-1H-indol-4-yl)-6-(1,3,5-trimethyl-1H-pyrazol-4-yl)-3,4-dihydropyrazino[1,2-a]indol-1(2H)-one] | 3.6 | – | 1900
Cc1cc(OCCCc2c3n(c4c(-c5c(C)nn(C)c5C)c(Cl)ccc24)[C@H](C)CN(c2cccc4cc(C(=O)O)n(Cc5ccccc5)c24)C3=O)cc(C)c1Cl [Example 241, 1-Benzyl-7-[(4R)-7-chloro-10-[3-(4-chloro-3,5-dimethyl-phenoxy)propyl]-4-methyl-1-oxo-6-(1,3,5-trimethylpyrazol-4-yl)-3,4-dihydropyrazino[1,2-a]indol-2-yl]indole-2-carboxylic acid] | < 1 | – | 420
Cc1cc(OCCCc2c3n(c4c(-c5c(C)nn(C)c5C)c(Cl)ccc24)[C@H](C)CN(c2cn(C)c4ccc(-c5nnn[nH]5)cc24)C3=O)cc(C)c1Cl [Example 251, (R)-7-Chloro-10-(3-(4-chloro-3,5-dimethylphenoxy)propyl)-4-methyl-2-(1-methyl-5-(1H-tetrazol-5-yl)-1H-indol-3-yl)-6-(1,3,5-trimethyl-1H-pyrazol-4-yl)-3,4-dihydropyrazino[1,2-a]indol-1(2H)-one] | < 1 | – | 250
Cc1cc(OCCCc2c3n(c4c(-c5c(C)nn(C)c5C)c(Cl)ccc24)[C@H](C)CN(c2ccc4c(c2)cc(C(=O)O)n4C)C3=O)cc(C)c1Cl [Example 114, (R)-5-(7-Chloro-10-(3-(4-chloro-3,5-dimethylphenoxy)propyl)-4-methyl-1-oxo-6-(1,3,5-trimethyl-1H-pyrazol-4-yl)-3,4-dihydropyrazino[1,2-a]indol-2(1H)-yl)-1-methyl-1H-indole-2-carboxylic acid] | < 1 | – | 840
Cc1nc(Cn2c(C(=O)O)cc3cccc(N4C[C@@H](C)n5c(c(CCCOc6cc(C)c(Cl)c(C)c6)c6ccc(Cl)c(-c7c(C)nn(C)c7C)c65)C4=O)c32)no1 [Example 314, 7-[(4R)-7-chloro-10-[3-(4-chloro-3,5-dimethyl-phenoxy)propyl]-4-methyl-1-oxo-6-(1,3,5-trimethylpyrazol-4-yl)-3,4-dihydropyrazino[1,2-a]indol-2-yl]-1-[(5-methyl-1,2,4-oxadiazol-3-yl)methyl]indole-2-carboxylic acid] | < 1 | – | 930
Cc1cc(OCCCc2c3n(c4c(-c5c(C)ncnc5C)c(Cl)ccc24)[C@H](C)CN(c2ccc(C(=O)O)c4cccnc24)C3=O)cc(C)c1Cl [Example 224, 8-[(4R)-7-chloro-10-[3-(4-chloro-3,5-dimethyl-phenoxy)propyl]-6-(4,6-dimethylpyrimidin-5-yl)-4-methyl-1-oxo-3,4-dihydropyrazino[1,2-a]indol-2-yl]quinoline-5-carboxylic acid] | < 1 | – | 2500
Cc1cc(OCCCc2c3n(c4c(-c5c(C)nn(C)c5C)c(Cl)ccc24)[C@H](C)[C@@H](C)N(c2cccc(C(=O)O)c2)C3=O)cc(C)c1Cl [Example 141, 3-((3R,4R)-7-chloro-10-(3-(4-chloro-3,5-dimethylphenoxy)propyl)-3,4-dimethyl-1-oxo-6-(1,3,5-trimethyl-1H-pyrazol-4-yl)-3,4-dihydropyrazino[1,2-a]indol-2(1H)-yl)benzoic acid] | 4.5 | – | 9500
Cc1cc(OCCCc2c3n(c4c(-c5c(C)nn(C)c5C)c(Cl)ccc24)[C@H](C)CN(c2cn(C)c4cc(C(=N)NO)ccc24)C3=O)cc(C)c1Cl [Example 335, (R)-3-(7-Chloro-10-(3-(4-chloro-3,5-dimethylphenoxy)propyl)-4-methyl-1-oxo-6-(1,3,5-trimethyl-1H-pyrazol-4-yl)-3,4-dihydropyrazino[1,2-a]indol-2(1H)-yl)-N-hydroxy-1-methyl-1H-indole-6-carboximidamide] | 4.5 | – | 910
Cc1cc(OCCCc2c3n(c4c(-c5c(C)nc(CN6CCN(C)C(=O)C6)nc5C)c(Cl)ccc24)[C@H](C)CN(c2cn(C)c4ccc(C(=O)O)cc24)C3=O)cc(C)c1Cl [Example 432, (R)-3-(7-Chloro-10-(3-(4-chloro-3,5-dimethylphenoxy)propyl)-6-(4,6-dimethyl-2-((4-methyl-3-oxopiperazin-1-yl)methyl)pyrimidin-5-yl)-4-methyl-1-oxo-3,4-dihydropyrazino[1,2-a]indol-2(1H)-yl)-1-methyl-1H-indole-5-carboxylic acid] | < 1 | – | 210
Cc1cc(OCCCc2c3n(c4c(-c5c(C)nn(C)c5C)c(Cl)ccc24)[C@H](C)CN(c2cccc4c(Cl)cc(C(=O)O)nc24)C3=O)cc(C)c1Cl [Example 230, (R)-4-Chloro-8-(7-chloro-10-(3-(4-chloro-3,5-dimethylphenoxy)propyl)-4-methyl-1-oxo-6-(1,3,5-trimethyl-1H-pyrazol-4-yl)-3,4-dihydropyrazino[1,2-a]indol-2(1H)-yl)quinoline-2-carboxylic acid] | < 1 | – | 890
Cc1cc(N2C[C@@H](C)n3c(c(CCCOc4cc(C)c(Cl)c(C)c4)c4ccc(Cl)c(-c5c(C)nn(C)c5C)c43)C2=O)c2c(c1)cc(C(=O)O)n2CC1CCOCC1 [Example 324, (R)-7-(7-Chloro-10-(3-(4-chloro-3,5-dimethylphenoxy)propyl)-4-methyl-1-oxo-6-(1,3,5-trimethyl-1H-pyrazol-4-yl)-3,4-dihydropyrazino[1,2-a]indol-2(1H)-yl)-5-methyl-1-((tetrahydro-2H-pyran-4-yl)methyl)-1H-indole-2-carboxylic acid] | < 1 | – | 610
Cc1cc(OCCCc2c3n(c4c(-c5c(C)nn(C)c5C)c(Cl)ccc24)[C@H](C)[C@@H](C)NC3=O)cc(C)c1Cl [Example 140, (3R,4R)-7-chloro-10-(3-(4-chloro-3,5-dimethylphenoxy)propyl)-3,4-dimethyl-6-(1,3,5-trimethyl-1H-pyrazol-4-yl)-3,4-dihydropyrazino[1,2-a]indol-1(2H)-one] | 79 | – | 7600
Cc1cc(OCCCc2c3n(c4c(-c5c(C)ncnc5C)c(C)ccc24)[C@H](C)CN(c2cccc4cc(C(=O)O)n(Cc5ccccn5)c24)C3=O)cc(C)c1Cl (atropisomer, axis not shown) [Example 271, (R)-7-(10-(3-(4-chloro-3,5-dimethylphenoxy)propyl)-6-(4,6-dimethylpyrimidin-5-yl)-4,7-dimethyl-1-oxo-3,4-dihydropyrazino[1,2-a]indol-2(1H)-yl)-1-(pyridin-2-ylmethyl)-1H-indole-2-carboxylic acid] | < 1 | – | 260
Cc1cc(OCCCc2c3n(c4c(-c5c(C)ncnc5C)c(Cl)ccc24)CCCN(c2cn(C)c4cc(C(=O)O)ccc24)C3=O)cc(C)c1Cl [Example 176, 3-[8-Chloro-11-[3-(4-chloro-3,5-dimethyl-phenoxy)propyl]-7-(4,6-dimethylpyrimidin-5-yl)-1-oxo-4,5-dihydro-3H-[1,4]diazepino[1,2-a]indol-2-yl]-1-methyl-indole-6-carboxylic acid] | < 1 | – | 410
Cc1cc(OCCCc2c3n(c4c(-c5c(C)nn(C)c5C)c(Cl)ccc24)[C@H](C)CN(c2cc(OCCN4CCOCC4)cc4cc(C(=O)O)n(C)c24)C3=O)cc(C)c1Cl [Example 458, (R)-7-(7-Chloro-10-(3-(4-chloro-3,5-dimethylphenoxy)propyl)-4-methyl-1-oxo-6-(1,3,5-trimethyl-1H-pyrazol-4-yl)-3,4-dihydropyrazino[1,2-a]indol-2(1H)-yl)-1-methyl-5-(2-morpholinoethoxy)-1H-indole-2-carboxylic acid] | 1.2 | – | 290
